This assay relates to AMPK. Kind of assay: AMPK activation (pAMPK Western blotting) in muscle cells. It is filed as cell-based. Particulars: 1 hour, vesicles 0, 0.1, 1, 10 μg/ml, metformin 10 μg/ml. On the procedure: Therefore, an experiment was performed in the following manner to evaluate the effect of Lactobacillus rhamnosus-derived vesicles (MDH-003) on cellular aging through AMPK activation within cells. That is, to evaluate AMPK activity according to the concentration of Lactobacillus rhamnosus-derived vesicles in muscle cells, cells were treated with Lactobacillus rhamnosus-derived vesicles at concentrations of 0, 0.1, 1, and 10 μg/ml for 1 hour. As a control group, metformin, which suppresses aging, was used at a concentration of 10 μg/ml. After treating the cells with the drug, the difference in the amount of pAMPK, which is an important indicator in AMPK signaling, was measured by Western blotting.
(Immunoblotting shows a protein as a band on a membrane.)

`CN(C)C(=N)N=C(N)N` [metformin]: the “phosphorylation of AMPK (pAMPK)” value is “enhanced”.

The values above are taken from patent US20240252560A1, “LACTOBACILLUS RHAMNOSUS-DERIVED VESICLE AND USES THEREOF” (MD HEALTHCARE INC., priority 2021, published 2024).
